Marks after values point to notes of the source that are not given here.
Key:
Assay type in all cases: binding, rabbit
1,7-DMX-Ab = experiment: Competitive antigen ELISA, antibody specificity of 1,7-DMX-Ab; conditions: ideal antibody specificity result hypothesized; 0 = no inhibition or no higher than 40% at 5×10^−3 M
Protocol: (§1) BSA, antibodies, Tween™ 20 and horse radish peroxidase are added to buffers and water just prior to use. Urine samples are usually collected four hours after drinking a cup of coffee (instant or brewed with approximately 100 mg of caffeine per cup) and stored at −20° C. as 1-mL aliquots in 1.5-mL microtubes. For the ELISA, the urine samples are diluted with isotonic sodium phosphate buffer, pH 7.5 (310 mosM) to give concentrations of caffeine, 1.7-DMX and 1,7-DMU no higher than 3×10^−6 M in the microtiter plate wells. Wells of the ELISA plate are washed with a Nunc-Immuno wash 12 washer. Sixteen milliliters of a solution of 6.6 μg ml^−1 of isolated IgG antibodies is prepared in a 100 mM sodium carbonate buffer, pH 9.6, and 150 μL of this solution is pipetted in each well of a microtiter plate using a eight channel pipet (Brinkmann Transferpette™-8 50-200 μL) and 200 μL Flex tips from Brinkmann). After coating the wells with antibodies at 4° C. for 20 hours, the wells are washed 3 times with the isotonic sodium phosphate buffer containing 0.05% Tween™ 20 (IPBT) and properly drained by inverting the plate and absorbing the liquid on to a piece of paper towel. Thirty milliliters of a solution of a IPBT solution containing 1% BSA is prepared and 150 μL of this solution is pipetted in each well using a eight channel pipet (Brinkmann Transferpette ™-8 50-200 μL) and 200 μL yellow tips (Sarstedt yellow tips for P200 Gilson Pipetman). After 3 hours at room temperature, the wells are washed 3 times with IPBT solution and drained. Samples of 400 μL for determination of caffeine, 1,7-DMX and 1,7-DMU are prepared in 1.5-mL microtubes using Sarstedt yellow tips and a P200 Gilson Pipetman. Then, 200 μL of each sample are pipetted in duplicate in a Falcon 96-well microtest tissue culture plate according to the pattern shown in FIG. 22, using Sarstedt yellow tips and a P200 Gilson Pipetman. Using an eight channel pipet (Brinkmann Transferpette™-8 50-200 μL) and changing the tips of the eight channel pipet (200μL Flex tips from Brinkmann) at each row, 150 μL of samples are transferred in the corresponding wells of a 96-well ELISA microtiter plate coated with antibodies. After the addition of the samples, the microtiter plates are covered and left standing at room temperature for 2 h. While the plate is left standing the substrate buffer without the hydrogen peroxide and o-phenylenediamine hydrochloride is prepared (25 mM citric acid and 50 mM sodium phosphate dibasic buffer, pH 5.0). The microtiter plate is washed 3 times with the IPBT solution and 3 times with a 0.05% Tween™ 20 solution and drained. Then, 50 μL of hydrogen peroxide and 40 mg of o-phenylenediamine are added to the substrate buffer. One hundred fifty microliters (150 μL) of the substrate buffer solution is then added to each well using a eight channel pipet (Brinkmann Transferpette™-8 50-200 μL) and 200 μL Flex tips (Brinkmann). The microtiter plate is covered and shaken for 25-30 min at room temperature and the enzymatic reaction is stopped by adding 50 μL/well of a 2.5 N HCl solution using an eight channel pipet (Brinkmann Transferpette™-8 50-200 μL) and 200L Flex tips (Brinkmann).

Caffeine-Ab = experiment: Competitive antigen ELISA, antibody specificity of caffeine-Ab; conditions: ideal antibody specificity result hypothesized; 0 = no inhibition or no higher than 40% at 5×10^−3 M
Protocol: as §1

1,7-DMU-Ab = experiment: Competitive antigen ELISA, antibody specificity of 1,7-DMU-Ab; conditions: ideal antibody specificity result hypothesized; 0 = no inhibition or no higher than 40% at 5×10^−3 M
Protocol: as §1

AAMU-Ab = experiment: Competitive antigen ELISA, cross-reactivity of AAMU-Ab; conditions: for % Cross-Reaction AAMU-Ab: 0 = absence of inhibition or inhibition no higher than 40% at the highest concentration tested (5×10^−3 M)
Protocol: (§2) Buffers and water without additives are filtered through millipore filters and kept for 1 week. BSA, antibodies, Tween™ 20 and horse radish peroxidase conjugates are added to these buffers and water just prior to use. Urine samples are usually collected 4 hours after drinking a cup of coffee (instant or brewed with approximately 100 mg of caffeine per cup) and stored at −80° C. The urine samples are diluted 10 times with sodium phosphate buffer (620 mosm, pH 7.50) and are subsequently diluted with water to give concentrations of AAMU and 1X no higher than 3×10^−6 M in the ELISA. All the pipettings are done with an eight-channel pipette, except those of the antibody and sample solutions. Starting with the last well, 100 μL of a carbonate buffer (100 mM, pH 9.6) containing 2.5 μg mL-1 antibodies are added to each well. After 90 min. at room temperature, the wells are washed three times with […] of TPB: isotonic sodium phosphate buffer (310 mosm, pH 7.50) containing 0.05% Tween™ 20.
(§3) After the initial wash, unoccupied sites are blocked by incubation for 90 min. at room temperature with 100 μL TBP containing 3% BSA. The wells are washed four times with 100 μL TPB. […] The microplate is gently shaken with an orbital shaker at room temperature for 3-4 hours. The wells are washed three times with 100 μL TPB containing 1% BSA and three times with water containing 0.05% Tween ™ 20. To the washed plate is added 150 μL of a substrate buffer composed of citric acid (25 mM) and sodium phosphate dibasic buffer (50 mM, pH 5.0) containing 0.06% hydrogen peroxide and 0.04% o-phenylenediamine hydrochloride.
(§4) Buffers and water without additives were filtered through millipore filters and kept for 1 week. BSA, antibodies, Tween ™ 20 and horse radish peroxidase conjugates were added to these buffers and water just prior to use. Urine samples were usually collected 4 hours after drinking a cup of coffee (instant or brewed with approximately 100 mg of caffeine per cup) and stored at 80° C. They were diluted 10 times with sodium phosphate buffer (620 mosm, pH 7.50) and were subsequently diluted with water to give concentrations of AAMU and 1X no higher than 3×10^−6 M in the ELISA. All the pipettings were done with an eight-channel pipette, except those of the antibody and sample solutions. Starting with the last well, 100 μL of a carbonate buffer (100 mM, pH 9.6) containing 2.5 μg mL^−1 antibodies was pipetted. After 90 min. at room temperature, the wells were washed three times with 100 μL of TPB: isotonic sodium phosphate buffer (310 mosm, pH 7.50) containing 0.05% Tween™ 20.
(§5) After the initial wash, unoccupied sites were blocked by incubation for 90 min. at room temperature with 100 μL TBP containing 3% BSA. The wells were washed four times with 100 μL TPB. […] The microplate was gently shaken with an orbital shaker at room temperature for 3-4 hours. The wells were washed three times with 100 μL with TPB containing 1% BSA and three times with water containing 0.05% Tween™ 20. To the washed plate was added 150 μL of a substrate buffer composed of citric acid (25 mM) and sodium phosphate dibasic buffer (50 mM, pH 5.0) containing 0.06% hydrogen peroxide and 0.04% o-phenylenediamine hydrochloride. After 20 min. at room temperature with shaking, the reaction was stopped with 50 μL of 2.5 N HCl.
(§6) The cross reactivities of AAMU-Ab and 1X-Ab were tested using a wide variety of caffeine metabolites and structural analogs (Table 5 below).

1X-Ab = experiment: Competitive antigen ELISA, cross-reactivity of 1X-Ab; conditions: for % Cross-Reaction 1X-Ab: 0 = absence of inhibition or inhibition no higher than 40% at the highest concentration tested (5×10^−3 M)
Protocol: as §2, §3, §4, §5, §6

Row | SMILES | % Cross-reaction 1,7-DMX-Ab (1,7-DMX-Ab) | % Cross-reaction Caffeine-Ab (Caffeine-Ab) [%] | % Cross-reaction 1,7-DMU-Ab (1,7-DMU-Ab) [%] | % Cross-Reaction AAMU-Ab (AAMU-Ab) [%] | % Cross-Reaction 1X-Ab (1X-Ab) [%] | IC50 (1X-Ab; read-out: concentration required for 50% inhibition in the competitive antigen ELISA, 1X-Ab) [µM] | IC50 (AAMU-Ab; read-out: concentration required for 50% inhibition in the competitive antigen ELISA, AAMU-Ab) [µM]
1 | Cn1c(=O)[nH]c2[nH]c(=O)[nH]c(=O)c21 [7-Methyluric acid] | 0% | 0 | 0 | – | – | – | –
2 | Cn1c(=O)[nH]c2nc[nH]c2c1=O [1-Methyl Xanthine (1X), 1-Methyl Xanthine] | 0% | 0 | 0 | 0 | 100 | 10 | –
3 | Cn1c(=O)[nH]c2ncn(C)c2c1=O [1,7-Dimethyl Xanthine (Paraxanthine), 1,7-Dimethyl Xanthine] | 100% | 0 | 0 | 0 | 0.5 | – | –
4 | CC(=O)Nc1c(N)[nH]c(=O)[nH]c1=O [5-Acetamino-6-amino-uracil] | 0% | 0 | 0 | 0.6 | 0 | – | –
5 | Nc1nc2nc[nH]c2c(=O)[nH]1 [Guanine] | 0% | 0 | 0 | 0 | 0 | – | –
6 | Cc1nc2[nH]c(=O)[nH]c(=O)c2[nH]1 [8-Methyl Xanthine] | 0% | 0 | 0 | 0 | 0 | – | –
7 | Cn1c(=O)[nH]c2[nH]c(=O)n(C)c2c1=O [1,7-Dimethyluric acid] | 0% | 0 | 100 | 0 | 0 | – | –
8 | Cn1c(=O)c2c([nH]c(=O)n2C)n(C)c1=O [1,3,7-Trimethyluric acid] | 0% | 0 | 0 | – | – | – | –
9 | Cn1c(=O)[nH]c(=O)c2[nH]cnc21 [3-Methyl Xanthine] | 0% | 0 | 0 | 0 | 0 | – | –
10 | Cn1c(=O)c2c(ncn2C)n(C)c1=O [1,3,7-Trimethyl Xanthine (Caffeine), 1,3,7-Trimethyl Xanthine] | 0^a % | 100 | 0 | 0 | 0 | – | –
11 | Cn1c(=O)[nH]c(=O)c2[nH]c(=O)[nH]c21 [3-Methyluric acid] | 0% | 0 | 0 | – | – | – | –
12 | Cn1cnc2c1c(=O)[nH]c(=O)n2C [3,7-Dimethyl Xanthine (Theobromine), 3,7-Dimethyl Xanthine] | 0% | 0 | 0 | 0 | 0 | – | –
13 | CC(=O)Nc1c(N)n(C)c(=O)[nH]c1=O [5-Acetamino-6-amino-1-methyluracil] | 0% | 0 | 0 | 100 | 0 | – | 1.5
14 | CC(=O)Nc1c(N)n(C)c(=O)n(C)c1=O [5-Acetamino-6-amino-1,3-dimethyluracil] | 0% | 0 | 0 | 0 | 0 | – | –
15 | O=c1[nH]c(=O)c2[nH]c(=O)[nH]c2[nH]1 [Uric acid] | 0% | 0 | 0 | 0 | 0 | – | –
16 | Cn1c(=O)c2[nH]cnc2n(C)c1=O [1,3-Dimethyl Xanthine (Theophylline), 1,3-Dimethyl Xanthine] | 0% | 0 | 0 | 0 | 0.2 | – | –
17 | Cn1cnc2[nH]c(=O)[nH]c(=O)c21 [7-Methyl Xanthine] | 0% | 0 | 0 | 0 | 0 | – | –
18 | Cn1c(=O)[nH]c(=O)c2c1[nH]c(=O)n2C [3,7-Dimethyluric acid] | 0% | 0 | 0 | – | – | – | –
19 | Cn1c(=O)c2[nH]c(=O)[nH]c2n(C)c1=O [1,3-Dimethyluric acid] | 0% | 0 | 0 | – | – | – | –
20 | Cn1c(=O)[nH]c2[nH]c(=O)[nH]c2c1=O [1-Methyluric acid] | 0% | 0 | 0 | 0 | 11 | – | –
21 | O=c1[nH]cnc2nc[nH]c12 [Hypoxanthine] | 0% | 0 | 0 | 0 | 0 | – | –

Source: patent US20030091975A1, “Multiple determinants for metabolic phenotypes” (priority 2001, published 2003)
